From patent publication US20120039816A1, “USE OF 7-CHLORO-N,N,5-TRIMETHYL-4-OXO-3-PHENYL-3,5-DIHYDRO-4H-PYRIDAZINO[4,5-B] INDOLE-1-ACETAMIDE AS A BIOMARKER OF PERIPHERAL BENZODIAZEPINE RECEPTOR LEVELS” (SANOFI-AVENTIS, priority 2008, published 2012)

Assays:
PBR [1] = target: T1, PBR (Homo sapiens, UniProt P30536); conditions: in vitro and in vivo; cited from earlier work
[2] = target: T2, PBR (peripheral benzodiazepine receptor) (Rattus norvegicus, UniProt P16257); experiment: MicroPET imaging in AMPA-lesioned rat model of neuroinflammation; type: in vivo, Wistar rats
T2 construct: lesioned striatum of AMPA-injected rats (the region in which PBR expression is induced); from tissue; host or cells: brain (AMPA-lesioned and intact striatum) of Wistar rats, imaged in vivo or cut into 20 µm sections
Procedure: Wistar rats (average body weight 300 g, centre d'Élevage René Janvier, France) were kept in thermoregulated, humidity controlled facilities under a 12 h/12 h light/dark cycle (light on between 7 h AM and 7 h PM) and were allowed free access to food and water. […] AMPA (0.5 μL) was injected into the right striatum (Bregma+0.7 mm, from sagittal suture: 2.7 mm, depth from brain surface: 5.5 mm).
(§1) MicroPET imaging was performed 7 days post-AMPA injection in rats and in 11-12 month old transgenic mice. In both mice and rats, anaesthesia was induced by isoflurane 5%, and thereafter maintained by 2-2.5% of isoflurane in a mixture of 70%/30% […]. […] Mice were placed on a bed equipped with an anaesthetic mask allowing heating of the air flow and the rectal temperature was monitored using the Homeothermic Blanket Control Unit.
(§2) In rats, radiolabelled compounds and unlabelled ligands were injected in the caudal vein with the use of 24 gauge catheter. Radiolabelled compounds were injected concomitantly at the start of the PET acquisition and unlabelled compounds were injected 20 min after injection of radiotracers. PET data were acquired for 80 min. In mice, radiolabelled compounds were injected in the caudal vein using 28 gauge needles immediately before the PET scan initiation. PET data were acquired for 60 min.
(§3) PET image analysis was performed using ASIPro VM™ (CTI Concorde Microsystems' Analysis Tools and System Setup/Diagnostics Tool) and Brainvisa/Anatomist (http://brainvisa.info/).

PBR [3] = experiment: PET imaging in quinolinic acid primate model of neuroinflammation; type: in vivo, Cynomolgus macaques (Macaca fascicularis)
Procedure: Cynomolgus macaques (Macaca fascicularis) weighing 4-5 kg were housed in thermoregulated, humidity controlled facilities under a 12 h/12 h light/dark cycle (light on between 7 h a.m. and 7 h p.m.) and were allowed free access to food and water. Neuroinflammation was induced by local sterotaxic injections of quinolinic acid (quinolinic acid, Sigma, St. Louis, Mo.; dissolved in 0.1 M PBS, pH 7.2) into the primate striatum (1 injection site into caudate and 2 injection sites into the putamen) during two different surgical interventions where quinolinic acid was injected into one hemisphere on day 1 and the second hemisphere 2 weeks or 7 months later (FIGS. 8 and 9). During each surgical session the animals received 60 nmol of quinolinic acid distributed over three different striatal sites, one 5 μL site in the caudate and two 10 μL sites in the putamen using a 10 μL-Hamilton syringe attached to a 26-gauge needle. […] The excitotoxin was injected at a rate of 0.1 μL/min and the injection syringe left in place for an additional 5 min to avoid backflow of the toxin. Throughout the surgery, the primate temperature was maintained normothermic (rectal temperature, 36° C.±0.6° C., mean±SD). After removing the needle, the skin was sutured and the animals were allowed to recover from anesthesia and returned to their cages when fully awake.
Imaging sessions were performed before and at various times after quinolinic acid injection (24 hrs, 48 hrs, 9 days, 16 days and 7 months post lesion).
One hour before PET imaging, animals were anaesthetized by intramuscular injection of a ketamine/xylazine mixture (15 mg/kg/1.5 mg/kg) and intubated. Catheters were then placed in a saphenous vein for radiotracer injection and in a femoral artery for blood sampling. Animals were maintained anaesthetized by an intravenous injection of propofol (Diprivan® 1%; 0.05 mg·kg^−1·min^−1).
To ensure correct positioning of the animal in the apparatus, the animal's head was secured in a home-made stereotactic frame. PET scans were performed using the high-resolution Focus micro-PET (CTI-Siemens, Knoxville, Tenn.), which acquires 95 contiguous planes simultaneously. For attenuation correction, a transmission scan was first performed using a ^68Ge rotating rod source.
as §3

PBR [4] = target: PBR (Rattus norvegicus, UniProt P16257); conditions: excess unlabelled PK11195 (23 μM) or A (22 μM), FIG. 5
[5] = Metabolite analysis in rat blood and brain; type: in vivo, Wistar rats
Procedure: A blood sample was collected and plasma isolated by centrifugation (5 min, 3000 rpm). Plasma proteins were precipitated from 400 μL of serum by addition of 400 μL of acetonitrile. After centrifugation (5 min, 3000 rpm), the supernatant was injected onto the HPLC column. Rat brains were removed and hemispheres were separated. Homogenisation by sonication was performed in 1 mL of acetonitrile per hemisphere. After a rapid centrifugation, the supernatant was separated from the pellet and concentrated under reduced pressure before injection onto the HPLC (see radiochemistry section for HPLC conditions).

PBR [6] = target: T3, PBR (Mus musculus, UniProt P50637); experiment: MicroPET imaging in APP×PS1 and PS1 transgenic mice; type: in vivo; conditions: for uptake in APP×PS1 vs wild type PS1: whole brain, 11-12 month old mice, PET
T3 construct: from tissue; host or cells: brain of PS1 and APPxPS1 transgenic mice, imaged in vivo at 11-12 months or cut into sections at 20-23 months
Source text: Generation and characterization of single PS1M146L (PS1) and double APP751SL×PS1M146L (APP×PS1) transgenic mice were achieved, as described previously (Blanchard, V. et al. (2003) Exp. Neurol. 184: 247-263). In these animals APP is expressed at a high level in all cortical neurons under the control of the Thy-1 promoter. Human PS1 with the M146L mutation is expressed under the control of the HMG-CoA reductase promoter. […] Both single PS1 and double APP×PS1 mice, provided by Sanofi-Aventis, were used for PET imaging at the age of 11-12 months and autoradiography at 20-23 months.
as §1, §2, §3

PBR [7] = target: T1, PBR; conditions: PET ligand; cited from earlier work
[8] = systemic, large excess (1 mg/kg), 30 min after radiotracer injection (FIG. 9)

T1 sequence (P30536 whole entry, species assumed): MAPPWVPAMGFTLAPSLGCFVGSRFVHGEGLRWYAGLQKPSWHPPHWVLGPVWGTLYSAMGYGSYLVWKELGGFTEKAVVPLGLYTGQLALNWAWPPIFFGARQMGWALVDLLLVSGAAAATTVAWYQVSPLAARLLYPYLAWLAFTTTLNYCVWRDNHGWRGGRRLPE

CN(C)C(=O)Cc1nn(-c2ccccc2)c(=O)c2c1c1ccc(Cl)cc1n2C [A, 7-chloro-N,N,5-trimethyl-4-oxo-3-phenyl-3,5-dihydro-4H-pyridazino[4,5-b]indole-1-acetamide]
affinity for the PBR (PBR [1]): high affinity

CCC(C)N(C)C(=O)c1cc2ccccc2c(-c2ccccc2Cl)n1 (stereo not drawn) [PK11195]
effect of unlabelled compound on [^11C]-A binding in the controlateral side ([2]; 1 mg/kg i.v., 20 min post [^11C]-A injection): small increase | effect of unlabelled compound on brain uptake of [^11C]-A in lesioned striatum ([2]; 1 mg/kg i.v., 20 min post [^11C]-A injection (FIG. 3, 4)): significantly reduced | effect of excess unlabelled compound on [^11C]-A binding in lesioned striatum (PBR [3]; [8]): specific displacement | effect of excess unlabelled compound on [^11C]-A binding in non-lesioned control brain regions (PBR [3]; [8]): no noticeable changes | effect of excess unlabelled ligand on ipsilateral to contralateral ratio of [^11C]-A binding (PBR [4]): abolished

CN(C)C(=O)Cc1nn(-c2ccccc2)c(=O)c2c1c1ccc(Cl)cc1n2[11CH3] [[^11C]-A, 7-Chloro-N,N-dimethyl-5-[^11C]methyl-4-oxo-3-phenyl-3,5-dihydro-4H-pyridazino[4,5-b]indole-1-acetamide]
metabolites present in brain ([5]; rats, 10, 20 and 30 min after [^11C]-A injection (FIG. 10)): essentially detected the parent compound only | metabolites present in blood and plasma ([5]; rats, 10 and 20 min after [^11C]-A injection (FIG. 10)): essentially detected the parent compound only | uptake in whole brain (cerebellum excluded) compared to [^11C]PK11195 (PBR [6]; APP×PS1 and wild type PS1 transgenic mice, 11-12 months (FIG. 6)): higher | uptake in APP×PS1 vs wild type PS1 (PBR [6]): not significantly higher | uptake in lesioned striatum (PBR [3]; 7 months after excitotoxin injection, right striatum): returned to baseline levels | uptake in lesioned right striatum compared to contralateral non-injected striatum and control brain regions (cerebellum, prefrontal cortex) (PBR [3]; 24 hrs after excitotoxin injection (FIG. 8)): significantly higher | increase in uptake in lesioned striatum (PBR [3]; 48 hrs after excitotoxin injection, left hemisphere): could still be visualized | time window of increased uptake after lesion (PBR [3]; early phase of neuroinflammation (FIG. 9)): can be visualised from 24 hrs up to 16 days | uptake in contralateral non-injected striatum (PBR [3]; same level as brain regions of a non-injected primate (FIG. 8)): remained stable

CC[C@@H](C)N([11CH3])C(=O)c1cc2ccccc2c(-c2ccccc2Cl)n1 [[^11C]PK11195, (R)—N—[^11C]Methyl-N-(1-methylpropyl)-1-(2-chlorophenyl)isoquinoline-3-carboxamide]
R1 ([2]; AMPA-injected rats, PET): 1.10±0.05 | binding potential (BP) ([2]; AMPA-injected rats, PET): 0.66±0.15 | uptake in APP×PS1 vs wild type PS1 (PBR [6]): not significantly higher | brain uptake (PBR [7]): relatively low brain uptake | non-specific binding (PBR [7]): high non-specific binding | signal to noise ratio (PBR [7]): poor signal to noise ratio
